Test results: ChEMBL document CHEMBL1153684, “Antiinflammatory -benzeneethanamines. III” (Bioorg Med Chem Lett, 1993)

What was measured:
Rattus norvegicus [1] = assay: Compound was tested for its oral antiinflammatory activity in the rat carrageenan paw edema assay (CAR); format: functional
Phospholipase A2 = Phospholipase A2 (Rattus norvegicus, UniProt P04055); assay: Inhibitory activity against polymorphonuclear cell phospholipase-A2 in rat
[2] = target: T1, Polyunsaturated fatty acid 5-lipoxygenase (Rattus norvegicus, UniProt P12527); assay: Inhibition of rat basophilic leukemia cell 5-lipoxygenase
T1 sequence (P12527 whole entry): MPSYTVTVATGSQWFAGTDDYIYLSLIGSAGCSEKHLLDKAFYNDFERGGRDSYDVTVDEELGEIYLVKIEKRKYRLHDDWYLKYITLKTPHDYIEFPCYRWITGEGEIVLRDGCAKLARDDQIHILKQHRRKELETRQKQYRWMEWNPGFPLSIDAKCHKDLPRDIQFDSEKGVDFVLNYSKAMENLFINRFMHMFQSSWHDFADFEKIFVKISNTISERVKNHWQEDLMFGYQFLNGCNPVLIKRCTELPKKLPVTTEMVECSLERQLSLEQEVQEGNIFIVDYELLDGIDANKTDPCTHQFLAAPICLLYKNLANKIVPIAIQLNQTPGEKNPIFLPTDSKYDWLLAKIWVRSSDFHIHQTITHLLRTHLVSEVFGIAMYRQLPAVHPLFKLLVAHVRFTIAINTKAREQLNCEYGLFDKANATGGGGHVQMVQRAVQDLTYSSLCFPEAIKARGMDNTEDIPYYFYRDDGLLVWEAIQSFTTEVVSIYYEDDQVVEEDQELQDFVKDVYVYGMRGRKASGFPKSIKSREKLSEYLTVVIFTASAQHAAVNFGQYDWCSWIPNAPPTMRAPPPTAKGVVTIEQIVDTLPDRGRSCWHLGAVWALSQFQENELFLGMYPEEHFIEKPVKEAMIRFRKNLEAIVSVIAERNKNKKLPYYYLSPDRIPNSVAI

Mus musculus [3] = assay: Compound was tested for its oral antiinflammatory activity in the mouse contact sensitivity assay (CON SEN) at the specified dose, activity expressed as % inhibition at 50 mg/Kg; format: functional
Rattus norvegicus [4] = assay: Compound was tested for its antiinflammatory activity in the rat established adjuvant arthritis paw edema assay (EST ADJ ARTH), after oral administration; format: functional
Mus musculus [5] = species: Mus musculus; assay: Compound was tested for its oral antiinflammatory activity in the mouse contact sensitivity assay (CON SEN); format: functional
Rattus norvegicus [6] = assay: Percent inhibition for its antiinflammatory activity in the rat carrageenan paw edema assay (CAR), % inhibition at 50 mg/Kg; format: functional
Mus musculus [7] = assay: Percent inhibition for its antiinflammatory activity in the tetradecanoyl phorbol acetate mouse ear edema assay (TPA EAR); Inhibition at 100 […]; format: functional

Phospholipase A2, sequence (P04055 whole entry): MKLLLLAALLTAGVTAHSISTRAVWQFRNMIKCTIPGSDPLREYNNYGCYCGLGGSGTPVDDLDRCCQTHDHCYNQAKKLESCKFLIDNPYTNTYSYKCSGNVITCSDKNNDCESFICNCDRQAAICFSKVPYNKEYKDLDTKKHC

Row | IC50 (Phospholipase A2) [µM] | IC50 [2] [µM] | SMILES | ED30 (Rattus norvegicus [1]) [µM/kg] | ED30 (Rattus norvegicus [1]; Rattus norvegicus, po, read-out: ED30) [mg/kg] | inhibition in vivo at 50 mg/kg (Mus musculus [3]) [%] | ED50 (Rattus norvegicus [4]) [mg/kg] | ED35 (Mus musculus [5]) [mg/kg] | inhibition in vivo at 50 mg/kg (Rattus norvegicus [6]) [%] | Inhibition (Mus musculus [7]) [%]
1 | 14 | 23 | Cl.NCC(CCCSc1ccc2ccccc2c1)c1ccc(F)cc1 (stereo not given) | >153.6 | – | – | – | – | – | –
2 | 6.6 | 35 | Cc1ccc(SCCCCCC(CN)c2ccc(F)cc2)cc1.Cl (stereo not given) | 117.7 | – | – | – | – | – | –
3 | 2.4 | 130 | Cl.NCC(CCCCSc1ccc2ccccc2c1)c1ccc(F)cc1 (stereo not given) | 171.3 | – | – | – | – | – | –
4 | 5.5 | 9.5 | Cc1ccc(SCCCCC(CN)c2ccc(F)cc2)cc1.Cl (stereo not given) | 1.4 | 0.51 | 51.2 | 50 | 8.9 | 59 | 37
5 | 4.8 | 230 | CC(C)(C)c1ccc(SCCCCC(CN)c2ccc(F)cc2)cc1.Cl (stereo not given) | 153.8 | – | – | – | – | – | –
6 | 54 | 75 | Cc1ccc(SCCCC(CN)c2ccc(F)cc2)cc1.Cl (stereo in doubt) | >172.8 | – | – | – | – | – | –
7 | 28.3 | 38 | Cc1ccc(SCCCC(CN)c2ccc(F)cc2)cc1.Cl (stereo in doubt; 2) | 50 | – | – | – | – | – | –
8 | > 25 | – | NC1=NN(c2cccc(C(F)(F)F)c2)CC1 [BW-755C] | – | – | – | – | – | – | –
9 | > 750 | > 25 | C[C@@H]1C[C@H]2[C@@H]3CCC4=CC(=O)C=C[C@]4(C)[C@@]3(F)[C@@H](O)C[C@]2(C)[C@@]1(O)C(=O)CO [DEXAMETHASONE] | <2.5 | – | – | – | – | – | –
10 | – | > 250 | COc1ccc2c(c1)c(CC(=O)O)c(C)n2C(=O)c1ccc(Cl)cc1 [INDOMETHACIN] | 2.8 | – | – | – | – | – | –
11 | 100 | – | CCN(CC)CCCC(C)Nc1c2ccc(Cl)cc2nc2ccc(OC)cc12 (stereo not given) [QUINACRINE] | 5.8 | – | – | – | – | – | –
